Data: article PMC6930660, “Synthesis and Comparative Structure–Activity Study of Carbohydrate-Based Phenolic Compounds as α-Glucosidase Inhibitors and Antioxidants” (Molecules, 2019)
“And” between values parts separate entries of the source, which are not always exact repeats. Equal values may be shown once.

Experiments:
[1] = biological target: rat α-glucosidase; experiment: α-glucosidase inhibitory activity assay (FUJIFILM kit, maltose substrate, glucose measured by mutarotase-GOD method); assay type: biochemical; details: for IC50: rat α-glucosidase, 18.5 mM maltose, maleic anhydride buffer pH 6.0, 37 °C, 30 min, mean ± S.D. of n = 2; for α-glucosidase inhibitory activity, fold higher than acertannin (37): relative to acertannin (37)
Experimental: The α-glucosidase inhibitory activity of all samples was assayed utilizing a commercially available FUJIFILM α-glucosidase inhibitory activity assay kit. In total, 25 μL of each sample (25–2000 μg/mL in H2O ) or acarbose (0.5–8 μg/mL in H2O ), 50 μL of 18.5 mM maltose diluted in maleic anhydride buffer (100 mM, pH = 6.0), and 25 μL of the rat α-glucosidase solution were incubated in a micro-tube at 37 °C for 30 min. Subsequently, 400 μL of purified water was added to the solution and the reaction mixture was boiled for 3 min to deactivate α-glucosidase. The generated glucose was measured by LabAssay™ glucose (mutarotase-GOD method). In total, 100 μL of the reaction solution and 150 μL of the coloring solution were incubated in 96-well plates at 37 °C for 10 min, and the absorbance was recorded at 505 nm using a microplate reader (Bio-Rad, Model 680). The inhibition percentage was calculated using the following Equation: Inhibition percentage (%) = 1−As−Ab/Ac ×100 where As is the absorbance of the analyzed sample, Ab is the absorbance of the blank (immediate deactivation), and Ac is the absorbance of the control ([…]). Acarbose was used as the positive control.

[2] = DPPH radical scavenging assay (antioxidant activity); details: for EC50: MES-NaOH buffer pH 6.0, 15 min in the dark; for Antioxidant Trolox-eq (TE): trolox-equivalent (mol-trolox/mol-sample) = slope of sample / slope of trolox
Experimental: The antioxidant activity was assessed by employing the 2,2-diphenyl-1-picrylhydrazyl (DPPH) radical scavenging assay, according to the previously published method. In total, 100 μL of each sample (1000–10 μg/mL in 50%EtOH/ H2O ) or trolox (160–0 μM in 50% EtOH/ H2O ), and 50 μL of 2-(N-morpholino)ethanesulfonic acid (MES)-NaOH buffer (200 mM, pH = 6.0), and 50 μL of an 800 μM DPPH diluted in 99.5% EtOH were mixed in 96-well plates. Following shaking the microplate for 15 min in the dark, the absorbance was recorded at 520 nm using a microplate reader (Bio-Rad, Model 680). Effective percentages (%) were calculated as follows: Effective percentages (%) = 1−As/Ab ×100 where As is the absorbance of the sample and Ab is the absorbance of the blank (without samples, 50% EtOH/ H2O solution was used instead).
The trolox-equivalent (sample-mol/trolox-mol) was calculated as follows: Trolox−equivalent (mol−trolox/mol−sample) = Ss/St where Ss is the slope of the sample and St is the slope of trolox.

| Molecule | IC50 [1] [µM] | α-glucosidase inhibitory activity, fold higher than acertannin (37) [1] | EC50 ([2]; mean ± S.D. of n = 3) [µM] | α-glucosidase inhibitory activity relative to gallic acid ([1]; relative to gallic acid) | Antioxidant Trolox-eq (TE) ([2]; mean ± S.D. of n = 3) | antioxidant activity (in words) [2] | Antioxidant Trolox-eq (TE) ([2]; mean ± S.D. of n = 3, listed as methyl 3,4-dihydroxybenzoate) |
| --- | --- | --- | --- | --- | --- | --- | --- |
| C[C@H]1O[C@H](O[C@H]2[C@H](O)[C@@H](O)[C@@H](O[C@H]3[C@H](O)[C@@H](O)C(O)O[C@@H]3CO)O[C@@H]2CO)[C@H](O)[C@@H](O)[C@@H]1N[C@H]1C=C(CO)[C@@H](O)[C@H](O)[C@H]1O (stereo partly drawn) [Acarbose, reference compound] | 0.11 ± 0.02 | – | – | – | – | – | – |
| O=C(O[C@H]1[C@H](O)[C@@H](O)CO[C@@H]1CO)c1cc(O)c(O)c(O)c1 [Compound 33, 1,5-Anhydro-4-O-(3′,4′,5′-trihydroxybenzoyl)-D-glucitol] | 143.9 ± 0.52 | – | 20.8 ± 1.54 | – | 2.09 ± 0.19 | – | – |
| O=C(OC[C@H]1OC[C@H](O)[C@@H](O)[C@@H]1O)c1cc(O)c(O)c(O)c1 [Compound 34, 1,5-Anhydro-6-O-(3′,4′,5′-trihydroxybenzoyl)-D-glucitol] | 127.1 ± 0.88 | – | 22.9 ± 1.61 | – | 2.13 ± 0.12 | – | – |
| O=C(OC[C@H]1OC[C@H](OC(=O)c2cc(O)c(O)c(O)c2)[C@@H](O)[C@@H]1O)c1cc(O)c(O)c(O)c1 [Compound 37, 1,5-Anhydro-2,6-bis-O-(3′,4′,5′-trihydroxybenzoyl)-D-glucitol] | 35.6 ± 2.58 | – | 15.2 ± 0.53 | – | 3.32 ± 0.37 | – | – |
| O=C(O[C@H]1[C@H](OC(=O)c2cc(O)c(O)c(O)c2)[C@@H](CO)OC[C@@H]1O)c1cc(O)c(O)c(O)c1 [Compound 38, 1,5-Anhydro-3,4-bis-O-(3′,4′,5′-trihydroxybenzoyl)-D-glucitol] | 91.4 ± 6.56 | – | 14.8 ± 0.56 | – | 3.55 ± 0.42 | – | – |
| O=C(OC[C@H]1OC[C@H](O)[C@@H](OC(=O)c2cc(O)c(O)c(O)c2)[C@@H]1O)c1cc(O)c(O)c(O)c1 [Compound 39, 1,5-Anhydro-3,6-bis-O-(3′,4′,5′-trihydroxybenzoyl)-D-glucitol] | 55 ± 8.84 | – | 11.9 ± 0.71 | – | 3.67 ± 0.19 | – | – |
| O=C(OC[C@H]1OC[C@H](O)[C@@H](O)[C@@H]1OC(=O)c1cc(O)c(O)c(O)c1)c1cc(O)c(O)c(O)c1 [Compound 40, 1,5-Anhydro-4,6-bis-O-(3′,4′,5′-trihydroxybenzoyl)-D-glucitol] | 26.6 ± 2.37 | – | 13 ± 1.12 | – | 3.78 ± 0.33 | – | – |
| O=C(OC[C@H]1OC[C@H](OC(=O)c2cc(O)c(O)c(O)c2)[C@@H](O)[C@@H]1OC(=O)c1cc(O)c(O)c(O)c1)c1cc(O)c(O)c(O)c1 [Compound 43, 1,5-Anhydro-2,4,6-tris-O-(3′,4′,5′-trihydroxybenzoyl)-D-glucitol] | 9.34 ± 0.99 | – | 10.3 ± 0.76 | – | 4.31 ± 0.35 | – | – |
| O=C(OC[C@H]1OC[C@H](O)[C@@H](OC(=O)c2cc(O)c(O)c(O)c2)[C@@H]1OC(=O)c1cc(O)c(O)c(O)c1)c1cc(O)c(O)c(O)c1 [Compound 44, 1,5-Anhydro-3,4,6-tris-O-(3′,4′,5′-trihydroxybenzoyl)-D-glucitol] | 12.6 ± 0.61 | – | 8.48 ± 0.21 | – | 5.36 ± 0.20 | – | – |
| O=C(OC[C@H]1OC[C@H](OC(=O)c2cc(O)cc(O)c2)[C@@H](OC(=O)c2cc(O)cc(O)c2)[C@@H]1OC(=O)c1cc(O)cc(O)c1)c1cc(O)cc(O)c1 [Compound 56, 1,5-Anhydro-2,3,4,6-tetrakis-O-(3,5-dihydroxybenzoyl)-D-glucitol] | 9.34 ± 0.02 | – | > 70 | – | – | no antioxidant activity was observed | – |
| O=C(O[C@H]1[C@@H]2OC(=O)c3cc(O)c(O)c(O)c3-c3c(cc(O)c(O)c3O)C(=O)OC[C@H]2OC[C@@H]1OC(=O)c1cc(O)c(O)c(O)c1)c1cc(O)c(O)c(O)c1 [Compound 67, 1,5-Anhydro-2,3-bis-O-(3′,4′,5′-trihydroxybenzoyl)-4,6-O-hexahydroxydiphenyl-D-glucitol] | 3.22 ± 0.51 | – | 6.79 ± 0.21 | – | 6.44 and 6.44 ± 0.24 | – | – |
| COC(=O)c1ccc(O)c(O)c1 [Methyl 3,4-dihydroxybenzoate, methyl 3,4-dihydroxybenzoate, reference compound] | > 300 | – | 21.1 ± 1.08 | – | 2.20 ± 0.05 | – | 2.20 |
| COC(=O)c1cc(O)cc(O)c1 [Methyl 3,5-dihydroxybenzoate, methyl 3,5-dihydroxybenzoate, reference compound] | > 300 | – | – | – | – | did not exhibit any notable activity | – |
| COC(=O)c1cccc(O)c1 [Methyl 3-hydroxybenzoate, methyl 3-hydroxybenzoate, reference compound] | > 660 | – | – | – | – | did not exhibit any notable activity | – |
| COC(=O)c1ccc(O)cc1 [Methyl 4-hydroxybenzoate, methyl 4-hydroxybenzoate, reference compound] | > 660 | – | – | – | – | did not exhibit any notable activity | – |
| COC(=O)c1cc(O)c(O)c(O)c1 [Methyl gallate, reference compound] | 90.5 ± 6.97 | – | 19.6 ± 0.11 | – | 2.42 ± 0.27 | – | – |
| Cc1c(C)c2c(c(C)c1O)CCC(C)(C(=O)O)O2 (stereo not drawn) [Trolox, reference compound] | – | – | 49.4 ± 3.87 | – | – | – | – |

Now from value to molecule, other results behind:

| IC50 [1] [µM] | α-glucosidase inhibitory activity, fold higher than acertannin (37) [1] | EC50 ([2]; mean ± S.D. of n = 3) [µM] | α-glucosidase inhibitory activity relative to gallic acid ([1]; relative to gallic acid) | Molecule | Antioxidant Trolox-eq (TE) ([2]; mean ± S.D. of n = 3) | antioxidant activity (in words) [2] | Antioxidant Trolox-eq (TE) ([2]; mean ± S.D. of n = 3, listed as methyl 3,4-dihydroxybenzoate) |
| --- | --- | --- | --- | --- | --- | --- | --- |
| 2.56 ± 0.1 | more than 13 fold | 6.61 ± 0.68 | – | 2,3,4,6-tetrakis-O-(3′,4′,5′-Trihydroxybenzoyl)-D-glucitol [Compound 54] | 6.77 ± 0.63 | – | – |
| 95.1 ± 0.22 | – | 19.4 ± 1.02 | – | O=C(O[C@H]1CO[C@H](CO)[C@@H](O)[C@@H]1O)c1cc(O)c(O)c(O)c1 [Compound 31, 1,5-Anhydro-2-O-(3′,4′,5′-trihydroxybenzoyl)-D-glucitol] | 2.04 ± 0.08 | – | – |
| 138 ± 1.5 | – | 20.5 ± 2.05 | – | O=C(O[C@H]1[C@H](O)[C@@H](CO)OC[C@@H]1O)c1cc(O)c(O)c(O)c1 [Compound 32, 1,5-Anhydro-3-O-(3′,4′,5′-trihydroxybenzoyl)-D-glucitol] | 2.38 ± 0.24 | – | – |
| 20.5 ± 0.5 | – | 11.3 ± 0.98 | three-times higher | O=C(O[C@H]1[C@H](O)[C@@H](CO)OC[C@@H]1OC(=O)c1cc(O)c(O)c(O)c1)c1cc(O)c(O)c(O)c1 [Compound 35, 1,5-Anhydro-2,3-bis-O-(3′,4′,5′-trihydroxybenzoyl)-D-glucitol] | 4.29 ± 0.23 | – | – |
| 48.3 ± 1.25 | – | 14.3 ± 0.29 | – | O=C(O[C@H]1[C@H](O)[C@@H](OC(=O)c2cc(O)c(O)c(O)c2)CO[C@@H]1CO)c1cc(O)c(O)c(O)c1 [Compound 36, 1,5-Anhydro-2,4-bis-O-(3′,4′,5′-trihydroxybenzoyl)-D-glucitol] | 3.36 ± 0.13 | – | – |
| 6.72 ± 0.21 | – | 7.94 ± 0.39 | – | O=C(O[C@H]1[C@H](OC(=O)c2cc(O)c(O)c(O)c2)[C@@H](CO)OC[C@@H]1OC(=O)c1cc(O)c(O)c(O)c1)c1cc(O)c(O)c(O)c1 [Compound 41, 1,5-Anhydro-2,3,4-tris-O-(3′,4′,5′-trihydroxybenzoyl)-D-glucitol] | 5.59 ± 0.26 | – | – |
| 5.34 ± 0.55 | – | 8.09 ± 0.41 | – | O=C(OC[C@H]1OC[C@H](OC(=O)c2cc(O)c(O)c(O)c2)[C@@H](OC(=O)c2cc(O)c(O)c(O)c2)[C@@H]1O)c1cc(O)c(O)c(O)c1 [Compound 42, 1,5-Anhydro-2,3,6-tris-O-(3′,4′,5′-trihydroxybenzoyl)-D-glucitol] | 5.75 ± 0.18 | – | – |
| 3.28 ± 0.16 | – | 6.99 ± 0.11 | – | O=C(OC[C@H]1OC[C@H](OC(=O)c2ccc(O)c(O)c2)[C@@H](OC(=O)c2ccc(O)c(O)c2)[C@@H]1OC(=O)c1ccc(O)c(O)c1)c1ccc(O)c(O)c1 [Compound 55, 1,5-Anhydro-2,3,4,6-tetrakis-O-(3′,4′-dihydroxybenzoyl)-D-glucitol] | 6.54 and 6.54 ± 0.15 | – | – |
| 1.68 ± 0.21 | more than 13 fold | 5.6 ± 0.28 | – | O=C(OC[C@H]1OC(O)[C@H](OC(=O)c2cc(O)c(O)c(O)c2)[C@@H](OC(=O)c2cc(O)c(O)c(O)c2)[C@@H]1OC(=O)c1cc(O)c(O)c(O)c1)c1cc(O)c(O)c(O)c1 (stereo partly drawn) [Compound 61, 2,3,4,6-tetrakis-O-(3′,4′,5′-Trihydroxybenzoyl)-α,β-D-glucopyranose] | 8.33 ± 0.49 | – | – |
